# Measurements from patent US10329542B2, “HBV RNAse H purification and enzyme inhibitors” (Saint Louis University, priority 2012, dated 2019).
# Assays:
# [1] = target: T1, chimeric HBV:HIV RNAseH HHC1 (Hepatitis B virus genotype D subtype ayw, UniProt P03156, DELINS787-795VNQIIEQLIVK/INS679M); assay: Oligonucleotide-directed RNAseH cleavage assay, chimeric HHC1; assay type: biochemical; conditions: read-out: Residual activity at 10 uM, HHC1
# T1 construct: HHC1 is an HRHPL derivative; made in house; host or cells: E. coli BL21 codon+
# T1 sequence (P03156 680-786, added parts left off, stated change not applied): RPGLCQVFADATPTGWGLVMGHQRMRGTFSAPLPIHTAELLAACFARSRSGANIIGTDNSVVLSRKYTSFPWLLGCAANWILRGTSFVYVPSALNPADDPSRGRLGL
# In short: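 Bacterially expressed C-terminal His-tagged HHC1 (HRHPL, HBV genotype D pol 684-845, with residues 800-808 swapped for HIV RNAseH helix D) extract mixed with internally 32P-labeled DRF+ RNA and oligonucleotide D2507- (D2526+ negative control), 42 °C, 90 min. Products resolved by 12% SDS-PAGE, autoradiographed and quantified; compounds added in DMSO, DMSO vehicle control.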
# [2] = tested on: HBV genotype A; assay: Plus-polarity preferential real-time PCR of HBV DNA, Huh7 cells; assay type: cell-based, Hepatitis B virus
# Protocol: Plus-polarity preferential quantitative TaqMan PCR for the HBV DNA was conducted employing forward primer […] (SEQ ID NO: 13), reverse primer […] (SEQ ID NO:14), and probe 5′-6Fam-[…]-Zen-[…]-IabkFQ-3′ (5′-6Fam-SEQ ID NO:15-Zen-SEQ ID NO: 16-IabkFQ-3′) (Integrated DNA Technologies). PCR was conducted on purified HBV capsid-derived nucleic acids for 40 cycles of 95° C. for 15 sec. and 65° C. for 1 min. employing the TaqMan universal PCR master mix (Applied Biosystems). Results were standardized against serial dilutions of cloned HBV DNA. The EC50 was estimated by linear regression of the real-time PCR data.
# The HBV plus-polarity DNA strand was measured to quantify the effects of βTJ on HBV replication because plus-polarity DNA cannot be made without RNAseH activity. Real-time PCR primers flanking the gap in the HBV minus-polarity DNA were designed that preferentially measure plus-polarity DNA because amplification across the gap in the minus-polarity DNA is inefficient. […] Above 10 μM, βTJ suppressed HBV plus-polarity DNA levels to below the assay background of approximately 14% that was determined with the D702A RNAseH-deficient genome.
compound,measurement,setting,value
"COc1cc2c(cc1Cc1cccc(Cl)c1F)c(=O)c(C(=O)O)cn2[C@H](CO)C(C)C [Compound 10, Elvitegravir, reference compound]",remaining activity at 10 µM,[1],35 ± 7%
"Cc1nnc(C(=O)NC(C)(C)c2nc(C(=O)NCc3ccc(F)cc3)c(O)c(=O)n2C)o1 [Compound 11, Raltegravir, reference compound]",remaining activity at 10 µM,[1],59 ± 23%
"NCc1ccc(-c2ccc(Cc3cc(=O)n(O)c4ncccc34)cc2)cc1 [Compound 12, napthyridinone]",Plus-strand DNA accumulation,"[2]; 10 μM, data not shown",7.3 % of the DMSO treated control
"CC(C)c1ccc(O)c(=O)c(O)c1 [Compound 46, beta-thujaplicinol]",HBV plus-polarity DNA level,"[2]; above 10 μM, assay background approximately 14%",< 14%
same,EC50,"[2]; read-out: 50% effective concentration (EC50), genotype A isolate in Huh7 cells",~5 µM
